Holding throughout (assay type): cell-based
The subject of data set [1] is human TUBA1B locus. Description: Knock-in Strategy V1: eGFP knock-in at TUBA1B, puromycin single selection, FACS screen of clones for FITC signal. Particulars: HEK293A. As for the experimental part:
In the Knock-in Strategy V1, a Cas9-encoding plasmid comprising a puromycin-resistance cassette was co-transfected with a circular donor plasmid without a selection marker as well as specific synthetic crRNA and tracrRNA. The selection was carried out exclusively with puromycin on the Cas9-encoding plasmid.
In the first knock-in strategy, the cells were transfected with the Cas9-PuroR plasmid, the circular donor plasmid, as well as specific, synthetic crRNA and tracrRNA. The selection was made exclusively on the Cas9 plasmid with puromycin for 10 days. Thereafter, single cells of the cells transfected with crRNA1 (SEQ ID NO: 07) or crRNA2 (SEQ ID NO: 08), respectively, were deposited in ten 96-well plates. […] The increased FITC signal can be attributed to the expression of eGFP, which is only possible if the eGFP sequence from the donor plasmid has been introduced in-frame into a translated region in the genome, since the start codon is missing.
The growth rate of the deposited single cells was determined microscopically after 3 weeks, and totaled 63%. Subsequently, the cells by FACS were analyzed for their FITC signal (results in Table 1).
(§1) Using FACS sorting, the transfected and partially already selected cells were sorted. These were harvested, washed with PBS and adjusted to a cell number of 1×10^6 cells/mL in FACS buffer. After the desired cell population had been gated and all settings made on the device for sorting, the selected cells could be […]. The single cell deposit was performed in 96-well format. The plates were stored with 200 μL of medium per well at 37° C. in order to temper the medium and to keep the cell's stress as low as possible. Each knock-in trial involved deposition in between 20 and 24 plates. The cells then needed about 3 weeks in the incubator at 37° C. and 5% CO2 for growth. All plates were analyzed microscopically to determine the growth rate and the clones were then examined for eGFP expression.
(§2) The methodology was used primarily for the screening of the generated clones. For this purpose, the medium was completely removed from the 96-well plates, the cells were detached with 25 μL Accutase and resuspended with 40 μL FACS buffer. 40 μL of cell suspension was transferred to a 96-well conical-bottomed plate and measured directly on the FACS Canto II from BD. The eGFP signals of the clones were always referenced with HEK293A wild-type cells. The evaluation was done with the FlowJo v10.0.7 software. Potentially positive clones with a distinct eGFP signal were expanded and further characterized.

Data set [2] deals with human TUBA1B locus. Briefly: Knock-in Strategy V2: eGFP knock-in at TUBA1B, puromycin and hygromycin B double selection, FACS screen of clones for FITC signal. Particulars: for Efficiency (potentially positive clones / clones examined) / Number of potential clones (total number of examined clones in parentheses): HEK293A. The protocol: In the Knock-in Strategy V2, a Cas9-encoding plasmid comprising a puromycin-resistance cassette was co-transfected with a circular donor plasmid with a hygromycin B-resistance cassette as well as specific, synthetic crRNA and tracrRNA. The selection was carried out as double selection with hygromycin B for the donor plasmid and puromycin for the Cas9-encoding plasmid.
In the Knock-in Strategy V2, the cells were transfected with the identical crRNAs and tracrRNAs, as well as the Cas9-PuroR plasmid as in the Knock-in Strategy V1. Each of the three crRNAs (SEQ ID NO: 07-09) was combined with the linearized or circular donor plasmid with the hygromycin B-resistance cassette. Selection was performed via puromycin for the Cas9 plasmid and hygromycin B for the donor plasmid for a total of 10 days. Four 96-well plates with FITC-positive, viable single cells were subsequently deposited from each transfection. Differences in the FITC signal between the wild-type and the transfected cells were evident in the enlarged view of the histograms. The proportion of FITC-positive cells was between 0.4% and 3.8%. […] The most intense signal was found in the sample of crRNA3 and the circular donor plasmid (FIG. 13).
After a three-week incubation in the incubator, the growth rate of the deposited single cells was determined microscopically. It averaged 34.3%. All grown clones were analyzed by FACS for their FITC signal. An eGFP expression in the cells leads to the detection of an increased FITC signal compared to the wild-type, i.e. non-transfected cells. A total of 118 potentially positive clones were identified from a total of 496 analyzed clones. This corresponded to an overall efficiency of […]. The proportion of potentially positive clones among the samples containing the circular donor plasmid was 33.3%, more than twice as high as that for the linearized donor plasmid at 15.3% (Table 4).
as §1, §2

Data set [3] deals with human TUBA1B locus. Briefly: Knock-in Strategy V3: eGFP knock-in at TUBA1B, CD4 pool sorting and hygromycin B selection, FACS screen of clones for FITC signal. Conditions: HEK293A. As for the experimental part:
In the Knock-in Strategy V3, the Cas9 nuclease and the sgRNA were combined on a single plasmid. This additionally contained a CD4 marker for selection. The donor plasmid corresponded to that of the strategy V2. Thus, the double selection was carried out via hygromycin B for the donor plasmid, as well as for CD4 for the nuclease/gRNA plasmid.
In the Knock-in Strategy V3, the cells were transfected with the circular or linear donor plasmid and a pCas-Guide EF1α-CD4 plasmid. This plasmid, referred to as “all-in-one”, encodes the Cas9 nuclease, a gRNA and CD4. The selection was made in this strategy via hygromycin B for the donor plasmid, and with CD4 for the Cas9 nuclease and the gRNA. Three different pCas-Guide-EF1α-CD4 plasmids were used, each coding for one of the three gRNAs. […] About 48 hours after transfection, the cells were stained with an APC-conjugated anti-CD4 antibody. HEK293A wild-type cells natively express no CD4, so these cells defined the APC negative gate. Only cells that had taken up the pCas-Guide-EF1α-CD4 plasmid expressed CD4 on the cell surface, which was detectable by FACS via the elevated APC signal after staining with the antibody. […] The transfected cells are between 63% and 86% in the APC positive gate. Comparing the samples with linear and circular donor plasmid from each gRNA, it was possible to see that proportionally more APC and, thus, CD4 positive cells were detected in the samples with the circular donor plasmid. From each transfection approximately 5×10^5 CD4 positive cells were deposited as a cell pool using FACS sorting (FIG. 16).
The cells were cultured after pool sorting for 24 h in 6-well plates. Next, selection with hygromycin B was performed for the donor plasmid for 10 days. Subsequently, single cells from each transfection were deposited in four 96-well plates. Differences in the FITC signal between the wild-type and the transfected samples were evident in the enlarged view of the histograms. […] Gating on FITC-positive cells was therefore almost impossible. To the extent possible, viable single cells were deposited from the FITC-positive gate (FIG. 17).
Three weeks after single cell deposition, the first screening of the clones for the FITC signal followed and, thus, the presence of eGFP in the FACS. Previously, an average growth rate of 43% had been determined microscopically. A total of 952 clones were screened, of which 33 were identified as potentially positive clones. This corresponded to an efficiency of 3.4%. No clones could be identified in the three samples 1L, 3L and 3Z. Again, it was possible to see that the circular donor plasmid samples yielded more potentially positive clones than did samples with the linearized donor plasmid (Table 7).
In the knock-in V3, the pCas9-Guide-EF1α-CD4 plasmid contains a CD4 cassette as a selection marker. To select the CD4-positive cells, the cells were harvested 48 hours after transfection and washed twice with PBS. Next, the cells were resuspended in 250 μL FACS buffer and 5 μL α-CD4-Alexa 647 antibody added. This corresponded to a final antibody concentration of 1.5 μg/mL. After one hour of incubation on ice in the dark, the cells were washed three times with FACS buffer and then measured. For pool sorting, approximately 1.5×10^5 CD4-positive cells per sample were sorted into a 15 mL Falcon in which 5 mL of complete medium had already been placed. Subsequently, the cells were centrifuged for 5 min. at 300 g, resuspended in 3 mL fresh complete medium and seeded into a 6-well plate. After 24 hours the cells were again adherent and could be selected with hygromycin B on the donor plasmid. Once the selected cells had matured, the single-cell deposition in the 96-well format was again carried out.
The methodology was used primarily for the screening of the generated clones. For this purpose, the medium was completely removed from the 96-well plates, the cells were detached with 25 μL Accutase and resuspended with 40 μL FACS buffer. […]

[4] abbreviates: Plates from gate P3, circular donor plasmid.
The mark [5] stands for this setting: Plates from gate P4 (FITC-positive), circular donor plasmid.

For the substance “crRNA1: TUBA1B-specific synthetic crRNA (Dharmacon), SEQ ID NO: 07, GAGTGCATCTCCATCCACGT (synthetic crRNA bought from a supplier, chemistry not given here)”, the “Efficiency (potentially positive clones / clones examined)” value is recorded as 0.44% with human TUBA1B locus [1] (setting [4]), 16.1% with human TUBA1B locus [1] (setting [5]), 53.3% in the data set with human TUBA1B locus [2] (Circular donor plasmid) and 7.2% in the data set on human TUBA1B locus [2] (Linear donor plasmid). Besides, the “Number of potentially positive clones (total number of examined clones in parentheses)” value in the data set on human TUBA1B locus [1] (setting [4]) is reported as 2 (452); in the data set on human TUBA1B locus [1] (setting [5]), 11 (68). The “Number of potential clones (total number of examined clones in parentheses)” value (“Number of potential clones” for short) in the data set with human TUBA1B locus [2] (Circular donor plasmid) is 40 (75); with human TUBA1B locus [2] (Linear donor plasmid), 7 (97).

Regarding “crRNA2: TUBA1B-specific synthetic crRNA (Dharmacon), SEQ ID NO: 08, GGCCAGGCTGGTGTCCAGAT (synthetic crRNA bought from a supplier, chemistry not given here)”, the “Efficiency (potentially positive clones / clones examined)” value in the data set with human TUBA1B locus [1] (setting [4]) was found to be 0.25%; in the data set with human TUBA1B locus [1] (setting [5]) it was 14.7%; with human TUBA1B locus [2] (Circular donor plasmid), 1%; in the data set with human TUBA1B locus [2] (Linear donor plasmid), 0%. The “Number of potentially positive clones (total number of examined clones in parentheses)” value with human TUBA1B locus [1] (setting [4]) was 1 (399); in the data set with human TUBA1B locus [1] (setting [5]), 9 (64). Besides, the “Number of potential clones” value with human TUBA1B locus [2] (Circular donor plasmid) is reported as 1 (98); in the data set with human TUBA1B locus [2] (Linear donor plasmid) it was 0 (81).

As for “crRNA3: TUBA1B-specific synthetic crRNA (Dharmacon), SEQ ID NO: 09, GAGCTCTACTGCCTGGAACA (synthetic crRNA bought from a supplier, chemistry not given here)”, in the data set on human TUBA1B locus [2] (Circular donor plasmid), the “Efficiency (potentially positive clones / clones examined)” value is listed as 60.7% and the “Number of potential clones” value is reported as 37 (61). In the data set with human TUBA1B locus [2] (Linear donor plasmid), the “Efficiency (potentially positive clones / clones examined)” value is reported as 39.3% and the “Number of potential clones” value is recorded as 33 (84). In addition, the “cells of the clones in the FITC-positive range” value in the data set with human TUBA1B locus [2] (clones with circular donor plasmid, after long-term cultivation, FACS) is given as “over 87%”.

For “gRNA1: TUBA1B-specific gRNA encoded on the pCas-Guide-EF1α-CD4 all-in-one plasmid, oligos SEQ ID NO: 01 and 02 (DNA 1 GATCGGAGTGCATCTCCATCCACGTG; DNA 2 AAAACACGTGGATGGAGATGCACTCC; the letters are possibly those of the target site)”, in the data set with human TUBA1B locus [3] (Circular donor plasmid), the “Efficiency (potential clones / clones examined)” value is 19.4% and the “Number of potential clones” value is 12 (62). Also, in the data set with human TUBA1B locus [3] (Linear donor plasmid), the “Efficiency (potential clones / clones examined)” value is given as 0% and the “Number of potential clones” value was 0 (195).

As to “gRNA2: TUBA1B-specific gRNA encoded on the pCas-Guide-EF1α-CD4 all-in-one plasmid, oligos SEQ ID NO: 03 and 04 (DNA 1 GATCGGGCCAGGCTGGTGTCCAGATG; DNA 2 AAAACATCTGGACACCAGCCTGGCCC; the letters are possibly those of the target site)”, in the data set on human TUBA1B locus [3] (Circular donor plasmid), the “Efficiency (potential clones / clones examined)” value turned out to be 6.5% and the “Number of potential clones” value is on record as 14 (214). In the data set on human TUBA1B locus [3] (Linear donor plasmid), the “Efficiency (potential clones / clones examined)” value is 3.6% and the “Number of potential clones” value is listed as 7 (195).

On to “gRNA3: TUBA1B-specific gRNA encoded on the pCas-Guide-EF1α-CD4 all-in-one plasmid, oligos SEQ ID NO: 05 and 06 (DNA 1 GATCGGAGCTCTACTGCCTGGAACAG; DNA 2 AAAACTGTTCCAGGCAGTAGAGCTCC; the letters are possibly those of the target site)”, for which, in the data set on human TUBA1B locus [3] (Circular donor plasmid), the “Efficiency (potential clones / clones examined)” value was 0% and the “Number of potential clones” value is recorded as 0 (105). In addition, in the data set with human TUBA1B locus [3] (Linear donor plasmid), the “Efficiency (potential clones / clones examined)” value came out at 0% and the “Number of potential clones” value is on record as 0 (212).

Values taken from patent publication US20210403924A1, “Method for selecting cells based on CRISPR/Cas-mediated integration of a detectable tag to a target protein” (Hoffmann-La Roche Inc., priority 2018, published 2021).
